Like-named read-outs stand apart in the source and are kept apart here.

The values that follow come from PMC5785997, “2-Phenylquinazolinones as dual-activity tankyrase-kinase inhibitors” (Scientific Reports, 2018).

Holding throughout (assay type): biochemical
One test deals with TNKS2 (Homo sapiens, UniProt Q9H2K2). Nature of the test: NAD+ quantification activity assay, TNKS2. The protocol:
The activity assay used to measure the potency of the compounds against TNKS2 is based on the quantification of NAD^+[38]. The reactions were carried out in 96-well plate (Greiner bio-one, U-shaped) and the conditions were the same as reported earlier (Table S5)[24].
The compounds were stored in 100% DMSO at −20 °C. All the compounds were diluted in the TNKS2 assay buffer (50 mM Bis-Tris Propane, 0.5 mM TCEP, 0.01% Triton-100x). Control reactions were used to exclude the effect of compound fluorescence and quenching from the calculations. […] The pIC50 values were calculated and fitted with nonlinear regression using 4-parameters with GraphPad Prism (version 5.0 for windows).
Protein (nM) NAD+ (nM) Incubation Buffer
Kinase [ATP] Substrate Incubation Reaction buffer

Another test deals with CDK9 (Homo sapiens, UniProt P50750). The test is described as follows: Kinase functional assay (mobility shift), CDK9. The conditions noted are these: for inhibition at 1 µM: 1 µM compound, Table S3; for inhibition at 1 µM / inhibition at 10 µM: read-out: CDK9 (% Inhib.); for inhibition at 10 µM / CDK9 inhibition-%: 10 µM compound; for inhibition at 10 µM: Table S4; for CDK9 inhibition-%: Table 1.

The next test relates to Akt. The test is described as follows: Kinase functional assay (mobility shift), Akt. The conditions noted are these: for IC50: dose response; for Akt inhibition-%: Table 1.
In the next test the target is ERK2 (Homo sapiens, UniProt P28482). Nature of the test: Kinase functional assay (mobility shift), ERK2 (p42). The conditions noted are these: for inhibition at 1 µM: 1 µM compound, Table S3; for inhibition at 1 µM / inhibition at 10 µM: read-out: ERK2 (% Inhib.); for inhibition at 10 µM / p42 inhibition-%: 10 µM compound; for inhibition at 10 µM: Table S4; for p42 inhibition-%: Table 1.

For another test, the target named is p38α (Homo sapiens, UniProt Q16539). The test is described as follows: Kinase functional assay (mobility shift), p38α. The settings on record: for inhibition at 1 µM / inhibition at 10 µM: read-out: p38α (% Inhib.); for p38 inhibition-%: Table 1.
The target in a further test is GSK3β (Homo sapiens, UniProt P49841). Nature of the test: Kinase functional assay (mobility shift), GSK3β. The settings on record: for inhibition at 1 µM: 1 µM compound, Table S3; for inhibition at 1 µM / inhibition at 10 µM: read-out: GSK3β (% Inhib.); for inhibition at 10 µM / GSK3β inhibition-%: 10 µM compound; for inhibition at 10 µM: Table S4; for GSK3β inhibition-%: Table 1.

For the next test, the target named is T1, human CK2α-1 (Homo sapiens, UniProt P68400).
T1 construct: purchased Promega V4,482
The test is described as follows: ADP-Glo kinase assay, CK2. The settings on record: for inhibition at 1 µM: 1 µM compound, Table S3; for inhibition at 1 µM / inhibition at 10 µM: read-out: CK2 (% Inhib.); for inhibition at 10 µM / CK2 inhibition-%: 10 µM compound; for inhibition at 10 µM: Table S4; for CK2 inhibition-%: Table 1. The protocol:
The kinase functional assays were performed using a combination of kinase and 1.5 μM peptide substrate in the presence of ATP. The reaction mixture was analyzed on the Caliper LabChip 3,000 (Caliper, Hopkinton, MA) by the electrophoretic mobility shift of the fluorescent substrate and phosphorylated product. For the inhibition of human CK2α-1, the experiments were carried out with ADP-Glo kinase Assay Kit (Promega V9,101). Assays are described in detail in the Supplementary Methods and Table S6. […]
Dose-response curves were generated to determine the concentration required to inhibit 50% of kinase activity (IC50). Staurosporine (Invitrogen BP2,451) was included as a positive control of each enzymatic assay. The profiling of the kinases was done at 1 and at 10 μM of the compound.
For the inhibition of human CK2α-1, the experiments were carried out in a white 384-microplate low flange (Corning 3,572) with ADP-Glo kinase Assay Kit (Promega V9101) and CK2α-1 Kinase Enzyme System (Promega V4,482). The test compounds and standard staurosporine (Invitrogen BP2451), 25 ng/well CK2α-1 kinase and 50 µM ATP were added in a final volume of 10 µl/well using reaction buffer supplied by kit as assay buffer. The reaction mixture was incubated in gentle shaking for 60 minutes at room temperature. After the incubation 10 µl of ADP-Glo reagent was added and incubated in gentle shaking for 40 minutes at room temperature. Finally 20 µl of Kinase Detection Reagent was added and the plate was incubated on a shaker for 30 minutes at room […]
temperature. […]
(In general: ADP-Glo first removes unused ATP, then detects ADP through luciferase.)

The mark [1] stands for this setting: Table 1, read-out: TNKS2 IC50 (shown for comparison).

p38α, sequence (Q16539 whole entry): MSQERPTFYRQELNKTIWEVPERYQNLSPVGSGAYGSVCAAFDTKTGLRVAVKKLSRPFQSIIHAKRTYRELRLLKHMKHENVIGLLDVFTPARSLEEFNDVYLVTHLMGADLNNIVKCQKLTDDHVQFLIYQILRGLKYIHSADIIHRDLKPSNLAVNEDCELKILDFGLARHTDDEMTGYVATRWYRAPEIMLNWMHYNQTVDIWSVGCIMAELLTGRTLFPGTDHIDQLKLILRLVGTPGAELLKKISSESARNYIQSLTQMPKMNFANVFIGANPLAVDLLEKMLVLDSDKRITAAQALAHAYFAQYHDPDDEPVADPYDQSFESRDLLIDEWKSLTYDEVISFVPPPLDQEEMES
TNKS2, sequence (Q9H2K2 959-1164): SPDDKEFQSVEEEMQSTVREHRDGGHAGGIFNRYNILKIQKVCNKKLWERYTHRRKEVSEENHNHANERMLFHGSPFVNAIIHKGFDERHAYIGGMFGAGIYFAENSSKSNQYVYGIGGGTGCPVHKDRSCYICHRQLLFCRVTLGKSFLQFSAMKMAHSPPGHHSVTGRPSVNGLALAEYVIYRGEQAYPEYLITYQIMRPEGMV
CDK9, sequence (P50750 whole entry, species assumed): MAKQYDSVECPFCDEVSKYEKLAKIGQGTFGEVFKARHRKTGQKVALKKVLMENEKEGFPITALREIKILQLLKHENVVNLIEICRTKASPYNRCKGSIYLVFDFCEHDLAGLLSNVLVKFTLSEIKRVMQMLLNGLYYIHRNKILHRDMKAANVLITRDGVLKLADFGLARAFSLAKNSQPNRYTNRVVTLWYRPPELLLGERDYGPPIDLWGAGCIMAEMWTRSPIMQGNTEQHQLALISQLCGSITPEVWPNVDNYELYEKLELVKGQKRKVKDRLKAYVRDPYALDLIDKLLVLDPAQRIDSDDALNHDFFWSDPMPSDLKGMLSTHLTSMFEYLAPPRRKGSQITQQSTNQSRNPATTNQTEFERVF
CDK9, sequence (O60563 whole entry partner, species assumed): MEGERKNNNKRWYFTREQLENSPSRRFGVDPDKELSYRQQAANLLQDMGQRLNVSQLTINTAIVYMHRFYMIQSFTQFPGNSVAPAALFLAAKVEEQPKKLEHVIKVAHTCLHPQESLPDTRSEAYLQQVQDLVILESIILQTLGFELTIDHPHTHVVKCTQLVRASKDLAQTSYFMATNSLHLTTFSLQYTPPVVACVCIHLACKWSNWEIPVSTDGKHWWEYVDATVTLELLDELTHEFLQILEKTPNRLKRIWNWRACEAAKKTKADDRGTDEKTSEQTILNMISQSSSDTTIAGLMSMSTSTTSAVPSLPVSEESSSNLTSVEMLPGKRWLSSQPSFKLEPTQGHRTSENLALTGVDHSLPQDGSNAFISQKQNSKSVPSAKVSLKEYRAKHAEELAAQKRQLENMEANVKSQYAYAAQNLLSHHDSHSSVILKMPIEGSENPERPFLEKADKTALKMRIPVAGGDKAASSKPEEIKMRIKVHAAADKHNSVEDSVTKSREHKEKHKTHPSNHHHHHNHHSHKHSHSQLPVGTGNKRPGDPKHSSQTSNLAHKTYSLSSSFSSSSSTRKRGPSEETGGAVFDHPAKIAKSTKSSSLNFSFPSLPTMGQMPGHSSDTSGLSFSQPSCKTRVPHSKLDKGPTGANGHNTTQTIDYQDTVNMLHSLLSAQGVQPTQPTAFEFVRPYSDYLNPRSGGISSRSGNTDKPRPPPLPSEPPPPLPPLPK
ERK2, sequence (P28482 whole entry, species assumed): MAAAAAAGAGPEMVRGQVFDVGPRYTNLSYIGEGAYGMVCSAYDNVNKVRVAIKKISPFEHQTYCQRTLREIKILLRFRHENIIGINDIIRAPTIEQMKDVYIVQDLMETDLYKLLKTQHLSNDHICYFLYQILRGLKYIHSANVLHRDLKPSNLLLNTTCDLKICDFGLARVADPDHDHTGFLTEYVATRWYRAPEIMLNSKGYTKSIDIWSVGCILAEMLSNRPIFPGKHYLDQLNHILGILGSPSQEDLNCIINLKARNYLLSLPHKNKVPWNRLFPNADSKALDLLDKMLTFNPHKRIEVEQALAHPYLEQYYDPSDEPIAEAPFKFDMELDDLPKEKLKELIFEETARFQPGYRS
T1 sequence (P68400 whole entry): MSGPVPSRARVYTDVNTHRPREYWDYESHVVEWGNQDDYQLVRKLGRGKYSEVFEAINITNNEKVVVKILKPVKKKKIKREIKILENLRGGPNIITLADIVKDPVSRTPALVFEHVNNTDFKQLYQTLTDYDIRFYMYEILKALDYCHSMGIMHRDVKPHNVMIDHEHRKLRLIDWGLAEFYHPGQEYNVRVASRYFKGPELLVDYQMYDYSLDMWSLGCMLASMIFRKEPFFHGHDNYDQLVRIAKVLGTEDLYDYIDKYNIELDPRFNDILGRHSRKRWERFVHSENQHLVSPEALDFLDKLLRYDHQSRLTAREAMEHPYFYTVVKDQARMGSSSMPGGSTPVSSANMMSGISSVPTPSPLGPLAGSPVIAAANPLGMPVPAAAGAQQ
GSK3β, sequence (P49841 whole entry, species assumed): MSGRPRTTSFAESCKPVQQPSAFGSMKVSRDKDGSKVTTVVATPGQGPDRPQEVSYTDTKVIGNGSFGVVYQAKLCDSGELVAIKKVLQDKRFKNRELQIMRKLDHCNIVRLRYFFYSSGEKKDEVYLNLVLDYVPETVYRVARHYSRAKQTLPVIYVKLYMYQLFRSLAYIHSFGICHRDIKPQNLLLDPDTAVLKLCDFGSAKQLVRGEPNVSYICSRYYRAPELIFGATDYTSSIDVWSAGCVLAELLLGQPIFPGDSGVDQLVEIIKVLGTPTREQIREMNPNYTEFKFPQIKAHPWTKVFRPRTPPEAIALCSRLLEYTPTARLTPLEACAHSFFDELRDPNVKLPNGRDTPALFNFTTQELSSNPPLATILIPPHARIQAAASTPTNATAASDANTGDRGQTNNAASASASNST

A word on the IC50: it is the point on the concentration scale where inhibition reaches its midpoint. On TNKS2 (TNKS2 IC50, NAD+ 500 nM), `O=C(O)c1ccc2c(=O)[nH]c(-c3ccc(Cl)cc3)nc2c1` [Compound 38] yielded an IC50 of 30100 nM.
`Oc1nc(-c2ccc(C(F)(F)F)cc2)nc2c1CSCC2` [Compound 1, XAV939, reference compound]: the inhibition at 1 µM on CDK9 came out at 11 ± 3%; on ERK2, 2 ± 2%; on p38α it was 2 ± 2%; on GSK3β, 1 ± 1%; at human CK2α-1, 2 ± 1%. Also, the inhibition at 10 µM amounted to 12 ± 1% on CDK9; 2 ± 1% on ERK2; 3 ± 2% on p38α; 7 ± 1% at GSK3β; 1 ± 1% at human CK2α-1. In addition, the “AKT (% Inhib.)” value in the test with Akt (1 µM compound, Table S3) came to 1 ± 1%; in the test on Akt (10 µM compound, Table S4) it was 7 ± 4%.
`O=c1[nH]c(-c2ccc(O)c(O)c2O)nc2ccccc12` [Compound 24] yielded an IC50 on TNKS2 (TNKS2 IC50, NAD+ 500 nM) of 440 nM.
In turn, `O=c1[nH]c(-c2ccccc2Cl)nc2ccccc12` [Compound 25] registered an IC50 against TNKS2 (TNKS2 IC50, NAD+ 500 nM) of 243000 nM.
`Nc1ccccc1-c1nc2ccccc2c(=O)[nH]1` [Compound 14] gave an IC50 against TNKS2 (TNKS2 IC50, NAD+ 500 nM) of 700 nM.
Compound `Oc1nc(-c2ccccc2F)nc2ccccc12` [Compound 26] showed an IC50 on TNKS2 (TNKS2 IC50, NAD+ 500 nM) of 4770 nM.
Take `O=c1[nH]c(-c2ccccn2)nc2ccccc12` [Compound 11]: inhibition at TNKS2 (TNKS2 IC50, as quoted in text) was half-maximal at 2400 nM (IC50).
The compound `COc1ccc(-c2nc3cc(Cl)ccc3c(=O)[nH]2)cc1` [Compound 40] showed an IC50 against TNKS2 (TNKS2 IC50, NAD+ 500 nM) of 2460 nM.
In the case of `CN(CCO)c1ccc(-c2nc3ccccc3c(=O)[nH]2)cc1` [C00005], the IC50 is 16 nM on TNKS2 (setting [1]); 16100 nM on CDK9 (compound does not completely inhibit the enzyme at concentrations used, IC50 extrapolated by the analysis software, read-out: CDK9 IC50 (extrapolated)); 13300 nM on Akt.
On to `O=c1[nH]c(-c2ccc(N3CCOCC3)cc2)nc2ccccc12` [Compound 31], for which the IC50 against TNKS2 (TNKS2 IC50, NAD+ 500 nM) stood at 17 nM.
As to `O=c1[nH]c(-c2ccc(-c3ccccn3)cc2)nc2ccccc12` [Compound 29], the IC50 against TNKS2 (TNKS2 IC50, NAD+ 500 nM) is 16 nM.
Same read-out and setting: the value for `O=c1[nH]c(-c2cccc3cnccc23)nc2ccccc12` [Compound 19] was 42300 nM.
Consider `CCN(CC)c1ccc(-c2nc3ccccc3c(=O)[nH]2)cc1` [C00003], for which the IC50 at TNKS2 (setting [1]) amounted to 10 nM. Further, the CDK9 inhibition-% at CDK9 worked out at 16%. Also, the Akt inhibition-% with Akt (10 µM compound) was 48%. The p42 inhibition-% at ERK2 is 18%. Further, the p38 inhibition-% at p38α (10 µM compound) is recorded as 20%. Besides, on GSK3β, the GSK3β inhibition-% is on record as 4%. Moreover, the CK2 inhibition-% at human CK2α-1 was 2%.
For the compound `CN(CCO)c1ccc(-c2nc3cc(Cl)ccc3c(=O)[nH]2)cc1` [Compound 41], the IC50 at TNKS2 (TNKS2 IC50, NAD+ 500 nM) amounted to 660 nM; on CDK9 (dose response, read-out: CDK9 IC50), 6200 nM; on Akt, 14700 nM.
For the compound `O=c1[nH]c(-c2ccc3[nH]ncc3c2)nc2ccccc12` [C00001], at TNKS2 (setting [1]), the IC50 was found to be 400 nM. For the same compound, the CDK9 inhibition-% at CDK9 amounted to 34%. Also, the Akt inhibition-% in the test on Akt (10 µM compound) is 1%. Further, the p42 inhibition-% at ERK2 amounted to 14%. Besides, on p38α (10 µM compound), the p38 inhibition-% stood at 3%. For the same compound, the GSK3β inhibition-% at GSK3β was found to be 57%. In addition, the CK2 inhibition-% at human CK2α-1 was found to be 12%.
`O=c1[nH]c(-c2ccc3[nH]ncc3c2)nc2ccccc12` [Compound 20] displayed an IC50 at TNKS2 (TNKS2 IC50, NAD+ 500 nM) of 400 nM. Also, the inhibition at 1 µM on CDK9 came to 7 ± 4%; on ERK2, 3 ± 1%; at p38α (1 µM compound, Table S3) it was 1 ± 1%; on GSK3β, 14 ± 1%; at human CK2α-1, 4 ± 3%. Further, the inhibition at 10 µM on CDK9 was found to be 34 ± 4%; on ERK2, 14 ± 2%; at p38α (10 µM compound, Table S4), 3 ± 2%; on GSK3β it was 57 ± 1%; on human CK2α-1 it was 12 ± 4%. In addition, the “AKT (% Inhib.)” value came to 1 ± 1% in the test on Akt (1 µM compound, Table S3) and 1 ± 1% with Akt (10 µM compound, Table S4).
